Converted amounts (≈) assume the structure as drawn. Each block holds one molecule with its values, some of them ahead of it. The source made the active and inactive calls. No cut-off for these calls is given here.
Key:
[1] = Clearance in dog liver microsomes; assay type: ADME, Canis lupus familiaris, Microsome
[2] = Aqueous solubility at pH 6.5; assay type: physicochemical
[3] = Aqueous solubility at pH 1; assay type: physicochemical
[4] = Clearance in rat liver microsomes; assay type: ADME, Microsome
[5] = Plasma concentration in human Calu6 cells xenografted in nude mouse at 75 mg/kg, po bid measured after 4 hrs post fifth dose; assay type: ADME, organism-based, Calu-6; set-up: dose 75 mg/kg, route oral
Plasma = experiment: (§1) Fraction unbound in human Calu6 cells xenografted in nude mouse plasma at 75 mg/kg, po bid measured after 4 hrs post fifth dose; assay type: ADME, organism-based, Calu-6; set-up: dose 75 mg/kg, route oral; details: in vivo, 4 h
Cytochrome P450 2C9 = Cytochrome P450 2C9 (Homo sapiens, UniProt P11712); experiment: Inhibition of CYP2C9; assay type: ADME
Calu-6 = experiment: Inhibition of hedgehog pathway in human Calu6 cells xenografted in nude mouse assessed as decrease in Gli transcription at 75 mg/kg, po bid measured after 4 hrs post fifth dose; assay type: functional, organism-based; set-up: dose 75 mg/kg
[6] = as §1; assay type: ADME, organism-based, Calu-6; set-up: dose 75 mg/kg, route oral; details: nude, plasma

Cytochrome P450 2C9, sequence (P11712 whole entry): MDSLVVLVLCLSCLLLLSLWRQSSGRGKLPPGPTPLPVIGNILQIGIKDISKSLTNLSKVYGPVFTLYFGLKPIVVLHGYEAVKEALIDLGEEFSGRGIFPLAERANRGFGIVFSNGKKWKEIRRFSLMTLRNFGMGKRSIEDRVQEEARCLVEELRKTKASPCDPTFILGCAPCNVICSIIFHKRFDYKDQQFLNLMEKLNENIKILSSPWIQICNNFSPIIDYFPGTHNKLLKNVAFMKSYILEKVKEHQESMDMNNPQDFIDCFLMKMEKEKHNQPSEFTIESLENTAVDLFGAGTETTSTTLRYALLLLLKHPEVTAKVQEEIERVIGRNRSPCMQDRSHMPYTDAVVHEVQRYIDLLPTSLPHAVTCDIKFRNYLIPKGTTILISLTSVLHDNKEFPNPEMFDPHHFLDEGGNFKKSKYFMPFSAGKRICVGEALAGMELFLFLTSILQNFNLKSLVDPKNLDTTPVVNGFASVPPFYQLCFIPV

SMILES: CS(=O)(=O)c1ccc(C(=O)Nc2ccc(Cl)c(-c3ccccn3)c2)c(Cl)c1 [VISMODEGIB]
concentration at 4 h [5]: 23 µM
CLint scaled [1]: 0.4 mL/min/kg
solubility [2]: 9.5 µg/mL (≈ 22.5 µM)
solubility [3]: > 3000 µg/mL
CLint scaled [4]: 3.7 mL/min/kg
Fu (Plasma): 9%

SMILES: Cc1nc(C(F)(F)F)ccc1C(=O)Nc1ccc(Cl)c(-n2cc3ccccc3n2)c1
CLint scaled [4]: 99.3 mL/min/kg

SMILES: CS(=O)(=O)c1ccc(C(=O)Nc2ccc(Cl)c(-c3ccccn3)c2)cc1
concentration at 4 h [5]: 14 µM
CLint scaled [1]: 1.4 mL/min/kg
solubility [2]: 0.5 µg/mL (≈ 1.29 µM)
solubility [3]: 420 µg/mL (≈ 1090 µM)
Activity (Calu-6): inactive
CLint scaled [4]: 1.2 mL/min/kg
fraction unbound at 4 h [6]: 0.03

SMILES: Cc1nc(C(F)(F)F)ccc1C(=O)Nc1ccc(Cl)c(-c2ccccn2)c1
concentration at 4 h [5]: 0.86 µM
CLint scaled [1]: 1.9 mL/min/kg
solubility [2]: 1.8 µg/mL (≈ 4.59 µM)
solubility [3]: 1000 µg/mL (≈ 2550 µM)
Activity (Calu-6): inactive
CLint scaled [4]: 4.5 mL/min/kg

Further lines, results first:

CLint scaled [1]: 7.4 mL/min/kg
solubility [2]: 0.1 µg/mL (≈ 0.226 µM)
solubility [3]: 0.1 µg/mL (≈ 0.226 µM)
CLint scaled [4]: 10.7 mL/min/kg
SMILES: Cc1nc(C(F)(F)F)ccc1C(=O)Nc1ccc(Cl)c(-c2cnc3ccccc3n2)c1

CLint scaled [1]: 124 mL/min/kg
solubility [2]: 0.3 µg/mL (≈ 0.696 µM)
solubility [3]: 300 µg/mL (≈ 696 µM)
CLint scaled [4]: 3 mL/min/kg
SMILES: Cc1nc(C(F)(F)F)ccc1C(=O)Nc1ccc(Cl)c(-c2nc3ccccc3[nH]2)c1

IC50 (Cytochrome P450 2C9): 2.5 µM
SMILES: Cc1nc(C(F)(F)F)ccc1C(=O)Nc1ccc(Cl)c(-c2nc3ccccc3n2C)c1

From ChEMBL document CHEMBL1156025, “GDC-0449-a potent inhibitor of the hedgehog pathway” (Bioorg Med Chem Lett, 2009)
